{
  "source": "patent US20110207697A1",
  "about": "“XANTHOHUMOL COMPOSITIONS AND METHODS FOR TREATING SKIN DISEASES OR DISORDERS” (Betal, LLC, priority 2008, published 2011)",
  "key": {"[1]": {"experiment": "ORAC-Total (ORAClipo + ORAChydro)", "description": "An ORAC method for lipophilic antioxidants was further developed and validated using fluorescein as the fluorescent probe (Prior et al. 2003 J. Agric. Food Chem. 51: 3273-3279). This method has the advantage that similar assay conditions and standards can be used for both hydrophilic and lipophilic antioxidant components, such that the two values can be added together to obtain a total antioxidant capacity. In the present work, the ORAC value is expressed as the sum of values of both the water-soluble and fat-soluble parts. Green tea catechins (Polyphenon 60) were used as the control with the highest ORAC value among edible plants. Vitamin C and vitamin E were used as controls for water- and fat-soluble molecules, respectively. […] The SOAC scores are not included in this figure; ORAC values used are the sum of lipophilic and hydrophilic results. For each assay category, scaling was made logarithmic so that the plot on the chart resembles the associated rating. […] The larger the spatial area, the higher the overall antioxidative capacity. […] Both hydrophilic and lipophilic oxygen radical absorbance capacity (ORAC) assays were carried out at Brunswick Laboratory (Wareham, Mass.) based on the modified ORACfl method reported by Ou et al. (2001 J. Agric. Food Chem. 49: 4619-4626, 2002 J. Agr. Food Chem. 50: 3122-3128). Trolox, a water-soluble vitamin E analog, was used as the calibration standard. The data are expressed as mmole of Trolox equivalents per gram (mmol TE/g). The acceptable precision of the ORAC assay is a 15% relative standard deviation. Caffeic acid was used as the calibration standard. Hydroxyl radical ORAC (HOR-AC) is expressed as mmole caffeic acid equivalent per gram (mmol CAE/g). Trolox was used as the calibration standard. The peroxyl nitrite ORAC (NORAC) result is expressed as mmol TE/g. Alpha-tocopherol (vitamin E) was used as the calibration standard, and the singlet oxygen absorbance capacity (SOAC) result is expressed as mmole a-tocopherol equivalent (mmol VtE) per gram (Aubry et al. 1989). The abbreviation for the 1,1-diphenyl-2-picrylhydrazyl radical is DPPH. Radical-scavenging activity was measured by the change in absorbance at 517 nm with the DPPH result expressed as mmol TE/g. Similarly, FRAP is an abbreviation for the ferric reducing antioxidative power method, which utilizes chemical conversion of the yellow Fe 3+-2,4,6-tripyridyl s-triazine (TPTZ) complex to the blue Fe 2+-TPTZ complex by electron donation under acidic conditions (Okada and Okada 1998 J. Agric. Food Chem. 46: 401-406). The FRAP result is expressed as mmol TE/g (Ou et al. 2002b). Superoxide dismutase (SOD) was used as a calibration standard; the SOD result is expressed as kilo unit SOD equivalent (kunitSODeq) per gram."}, "[2]": {"experiment": "Singlet oxygen absorbance capacity (SOAC)", "description": "[table] Alpha-tocopherol (vitamin E) was used as the calibration standard, and the SOAC result is expressed as mmol VtE/g. The higher the SOAC score, the higher the singlet oxygen-quenching capacity. […] Singlet oxygen has been postulated to be a highly reactive and toxic intermediate against skin. It is known that the acne-causing bacterium P. acnes naturally produces high amounts of intracellular porphyrins, mostly coproporphyrin (Ashkenazi et al. 2003). Singlet oxygen can be generated on the skin surface from P. acnes porphyrins under sunlight and induce serious skin damage ([…] et al. 1996 Biochem. Biophys. Res. Commun. 223: 578-582). Various skin disorders progress through a singlet oxygen-dependent mechanism, including acne, atopic dermatitis, and skin aging. Both hydrophilic and lipophilic oxygen radical absorbance capacity (ORAC) assays were carried out at Brunswick Laboratory (Wareham, Mass.) based on the modified ORACfl method reported by Ou et al. (2001 J. Agric. Food Chem. 49: 4619-4626, 2002 J. Agr. Food Chem. 50: 3122-3128). Trolox, a water-soluble vitamin E analog, was used as the calibration standard. The data are expressed as mmole of Trolox equivalents per gram (mmol TE/g). The acceptable precision of the ORAC assay is a 15% relative standard deviation. Caffeic acid was used as the calibration standard. Hydroxyl radical ORAC (HOR-AC) is expressed as mmole caffeic acid equivalent per gram (mmol CAE/g). Trolox was used as the calibration standard. The peroxyl nitrite ORAC (NORAC) result is expressed as mmol TE/g. Alpha-tocopherol (vitamin E) was used as the calibration standard, and the singlet oxygen absorbance capacity (SOAC) result is expressed as mmole a-tocopherol equivalent (mmol VtE) per gram (Aubry et al. 1989). […] Radical-scavenging activity was measured by the change in absorbance at 517 nm with the DPPH result expressed as mmol TE/g. […] The FRAP result is expressed as mmol TE/g (Ou et al. 2002b). Superoxide dismutase (SOD) was used as a calibration standard; the SOD result is expressed as kilo unit SOD equivalent (kunitSODeq) per gram."}, "S. pyogenes (ATCC 14289)": {"system": "S. pyogenes (ATCC 14289)", "experiment": "Antimicrobial susceptibility, broth dilution (MIC/MBC)", "assay_type": "cell-based, Streptococcus pyogenes", "procedure": "The antibacterial effects of seven hops components against five different strains of bacteria involved in primary or secondary skin and soft tissue infections was evaluated, with broth dilution methods. […] Antimicrobial susceptibility testing was performed using a broth dilution method. Gentamicin or ampicillin was used as a control to verify the methodology. A stock solution (20 mg/ml) of the test substance (or vehicle control) was prepared in dimethyl sulfoxide. Serial dilution was done in microwell plates. Reinforced Clostridial Medium was used for P. acnes (ATCC 6919). Three hundreds […] of the test substance was added to the test tube containing P. acnes (10^5 CFU/ml) in 2.7 ml of cultures grown under anaerobic conditions. Mueller-Hinston Broth suitable for culturing S. epidermidis (ATCC 12228), K. rhizophila (formerly M. luteus) (ATCC 9341), and S. aureus (ATCC […]), and Brain Heart Infusion Broth suitable for culturing S. pyogenes (ATCC 14289) were used. A total of […] of the test substance was added to the test tube containing the other microorganisms (10^5CFU/ml) in 0.9 ml of cultures grown under controlled conditions. […] Samples from those tubes that scored positive was plated onto an agar plate and incubated under controlled conditions."}},
  "data": [
    {"compound": "COc1cc(O)c(CC=C(C)C)c(O)c1C(=O)/C=C/c1ccc(O)cc1", "note": "[Xanthohumol (7), 3′-[3,3-dimethylallyl]-2′,4′,4-trihydroxy-6′-methoxychalcone]", "values": [
      {"measurement": "quenching activity against peroxyl radical (ORAC-total), rank among hop components", "setting": "[1]; FIG. 2 radar chart", "value": "highest quenching activity"},
      {"measurement": "ORAC-Total (Trolox equivalent)", "setting": "[1]; ORAClipo + ORAChydro", "value": 4.2, "unit": "Trolox equivalent"},
      {"measurement": "SOAC value, times higher than that of vitamin E or Polyphenon 60", "setting": "[2]", "value": "8-15 times"},
      {"measurement": "SOAC (Vitamin E equivalent)", "setting": "[2]; expressed as mmol VtE/g", "value": 14.1, "unit": "Vitamin E equivalent"},
      {"measurement": "MBC", "setting": "S. pyogenes (ATCC 14289)", "value": "[3] g/mL"},
      {"measurement": "MIC", "setting": "S. pyogenes (ATCC 14289); 1 day", "value": 1, "unit": "µg/mL"}
    ]}
  ]
}
